Source: US12163950B2, “Synthetic odorant receptors” (Duke University, priority 2018, dated 2024)

What was measured:
Mut-OR10 = experiment: cAMP-mediated luciferase reporter gene assay, triple Arg mutant of consensus OR10; format: cell-based, human; conditions: FIG. 10F
Protocol: (§1) FIG. 10A-B. Consensus OR1, OR6, OR10 and OR52 are functionally expressed in Hana3A cells, as indicated by cAMP-mediated luciferase assays. (A) Heatmap of ORs responses to 30 uM odorant selected from a previously screened panel of 320 compounds. Luciferase activity was normalized for each OR by setting as 1.0 the highest response value, and 0 as the lowest response value. (B) Dose-response curve of consensus ORs to candidate ligands ranging from 0 to 316 uM or 1 mM. Cells transfected with pCI vector were used as a negative control. Luciferase activity was normalized by setting as 1.0 the highest response value, and 0 as the lowest response value of each experiment. n=3, error bars indicate SEM.
(§2) FIG. 10C-D-E-F. Improvement of OR expression by mutations in TM1 and Helix 8. (C) Homology model of hOR10. Each TM is highlighted in a colored tubes and residues D511.60, S521.61, H531.62 and E294H8 are represented in licorice (pink). (D) Zoom on the residues 1.60, 1.61, 1.62, H8 mutated for hOR1 (red), hOR10 (blue), hOR51 (green) and hOR52 (pink). […]
(§3) The consensus ORs already show a clear increase of cell surface expression in comparison to naturally-occurring ORs. […] Experiments evaluated the cell surface expression of the consensus ORs with their corresponding triple Arg mutants, including a well-studied non-olfactory class A GPCR, the muscarinic 3 receptor (M3) (FIG. 10E). […]

Mut-OR52 = experiment: cAMP-mediated luciferase reporter gene assay, triple Arg mutant of consensus OR52; format: cell-based, human; conditions: FIG. 10F
Protocol: as §1, §2, §3

response of Mut-OR10 compared to consensus OR10 (Mut-OR10) | response of Mut-OR10 to its agonist (luciferase activity) (Mut-OR10; dose-response) | response of Mut-OR52 to its agonist (luciferase activity) (Mut-OR52) | Compound
diminished compared to OR10 | responded | – | CC(=O)/C=C/C1=C(C)CCCC1(C)C [0-ionone, β-ionone]
– | – | responded | CCCCCCCCC(=O)O [nonanoic acid]
